Reference: article PMC11502502 (Nature cancer, 2024)
“And” between values parts separate entries of the source, which are not always exact repeats. Equal entries are not always repeated.

Tests used:
[1] = tested on: MV-4–11 (AML)-xenografted mice; assay: MV-4–11 AML xenograft efficacy and overall survival; assay type: in vivo; parameters: anti-tumor efficacy in MV-4-11 (AML)-tumor bearing mice in combination with SoC (tumor measurement per animal): unit not given here; conditions: for Overall survival of MV-4-11 (AML)-tumor bearing mice: BRD-810 50 mg/kg; for anti-tumor efficacy in MV-4-11 (AML)-tumor bearing mice in combination with SoC (tumor measurement per animal): individual animals, BRD-810 50mg/kg
[2] = tested on: THP-1 (AML) xenografted mice; assay: THP-1 AML xenograft efficacy; assay type: in vivo; parameters: anti-tumor efficacy in THP-1 (AML)-tumor bearing mice, individual measurements: unit not given here

For Nc1ncn([C@@H]2O[C@H](CO)[C@@H](O)[C@H]2O)c(=O)n1 [Azacytidine], the “Overall survival of MV-4-11 (AML)-tumor bearing mice” value (“Overall survival” for short) ([1]; day 0 post treatment start) was 100, the “Overall survival” value ([1]; day 1 post treatment start) was 100 and the “anti-tumor efficacy in MV-4-11 (AML)-tumor bearing mice in combination with SoC (tumor measurement per animal)” value ([1]; day 1 post treatment start) was 37.66 and 36.25 and 41.68 and 30.5 and 27.18 and 34.36 and 33.31 and 32.32 and 36.01 and 43.7. For the same molecule, the “Overall survival” value ([1]; day 4 post treatment start) was 100, the “anti-tumor efficacy in MV-4-11 (AML)-tumor bearing mice in combination with SoC (tumor measurement per animal)” value ([1]; day 4 post treatment start) was 54.55 and 56.25 and 56.22 and 40.13 and 37.55 and 44.2 and 45.16 and 42.15 and 44.53 and 58.86 and the “Overall survival” value ([1]; day 8 post treatment start) was 100. The “anti-tumor efficacy in MV-4-11 (AML)-tumor bearing mice in combination with SoC (tumor measurement per animal)” value ([1]; day 8 post treatment start) was 65.52 and 65.46 and 68.31 and 53.62 and 40.92 and 60.68 and 62.4 and 50.31 and 59.65 and 77.78, the “Overall survival” value ([1]; day 11 post treatment start) was 100 and the “anti-tumor efficacy in MV-4-11 (AML)-tumor bearing mice in combination with SoC (tumor measurement per animal)” value ([1]; day 11 post treatment start) was 89.02 and 75.69 and 101.46 and 67.13 and 49.48 and 79.37 and 79.77 and 55.4 and 81.03 and 99.97. For the same molecule, the “Overall survival” value ([1]; day 15 post treatment start) was 100, the “anti-tumor efficacy in MV-4-11 (AML)-tumor bearing mice in combination with SoC (tumor measurement per animal)” value ([1]; day 15 post treatment start) was 108.19 and 101.3 and 133.05 and 77.44 and 61.88 and 97.99 and 123.49 and 81.45 and 115.12 and 117.74 and the “Overall survival” value ([1]; day 16 post treatment start) was 100. For the same molecule, the “anti-tumor efficacy in MV-4-11 (AML)-tumor bearing mice in combination with SoC (tumor measurement per animal)” value ([1]; day 16 post treatment start) was 125.36 and 108.14 and 139.95 and 80.65 and 62.33 and 102.82 and 127.03 and 91.37 and 119.07 and 128.51, the “Overall survival” value ([1]; day 17 post treatment start) was 100 and the “anti-tumor efficacy in MV-4-11 (AML)-tumor bearing mice in combination with SoC (tumor measurement per animal)” value ([1]; day 17 post treatment start) was 137.71 and 107.49 and 162.36 and 100.14 and 70.25 and 118.23 and 133.41 and 87.57 and 140.74 and 152.32. For the same molecule, the “Overall survival” value ([1]; day 19 post treatment start) was 0, the “Overall survival” value ([1]; day 22 post treatment start) was 0 and the “Overall survival” value ([1]; day 23 post treatment start) was 0. For the same molecule, the “Overall survival” value ([1]; day 24 post treatment start) was 0, the “Overall survival” value ([1]; day 25 post treatment start) was 0 and the “Overall survival” value ([1]; day 28 post treatment start) was 0. The “Overall survival” value ([1]; day 30 post treatment start) was 0, the “Overall survival” value ([1]; day 32 post treatment start) was 0 and the “Overall survival” value ([1]; day 34 post treatment start) was 0. The “Overall survival” value ([1]; day 37 post treatment start) was 0, the “Overall survival” value ([1]; day 39 post treatment start) was 0 and the “Overall survival” value ([1]; day 41 post treatment start) was 0. The “Overall survival” value ([1]; day 44 post treatment start) was 0, the “Overall survival” value ([1]; day 46 post treatment start) was 0 and the “Overall survival” value ([1]; day 48 post treatment start) was 0. The “Overall survival” value ([1]; day 51 post treatment start) was 0 and the “Overall survival” value ([1]; day 53 post treatment start) was 0.

In the case of Nc1ccn([C@@H]2O[C@H](CO)[C@@H](O)[C@@H]2O)c(=O)n1 [cytarabine], the “Antitumor efficacy, single agent” value ([2]; 45 mg kg^−1 subcutaneous, 3 days on, 4 days off) is reported as “neither the Bcl-2 inhibitor venetoclax nor cytarabine showed appreciable single-agent efficacy”, the “anti-tumor efficacy in THP-1 (AML)-tumor bearing mice, individual measurements” value (from here on “anti-tumor efficacy … individual measurements”) ([2]; Cytarabine, day 1 post treatment start, animals #3001-#3010) is reported as 34.55 and 34.13 and 35.27 and 36.61 and 37.97 and 29.56 and 32.2 and 26.85 and 39.7 and 33.08 and the “anti-tumor efficacy … individual measurements” value ([2]; Cytarabine, day 3 post treatment start, animals #3001-#3010) is reported as 56.73 and 43.71 and 46.59 and 40.5 and 59.56 and 37.55 and 48.92 and 32.47 and 41.3 and 50.46. The “anti-tumor efficacy … individual measurements” value ([2]; Cytarabine, day 6 post treatment start, animals #3001-#3010) was 60.86 and 46.12 and 47.28 and 41.77 and 70.74 and 42.28 and 63.75 and 27.68 and 36.96 and 52.92, the “anti-tumor efficacy … individual measurements” value ([2]; Cytarabine, day 8 post treatment start, animals #3001-#3010) was 80.75 and 48.31 and 57.33 and 37.06 and 69.84 and 40.98 and 72.57 and 28.68 and 37.62 and 62.2 and the “anti-tumor efficacy … individual measurements” value ([2]; Cytarabine, day 10 post treatment start, animals #3001-#3010) was 87.52 and 55.21 and 72.45 and 39.84 and 85.66 and 45.49 and 94.07 and 29.37 and 34.83 and 74.1. For the same molecule, the “anti-tumor efficacy … individual measurements” value ([2]; Cytarabine, day 13 post treatment start, animals #3001-#3010) was 101.88 and 64.15 and 91.89 and 43.02 and 99.25 and 47.84 and 115.35 and 31.51 and 35.25 and 76.99.

In the case of CC1(C)CCC(CN2CCN(c3ccc(C(=O)NS(=O)(=O)c4ccc(NCC5CCOCC5)c([N+](=O)[O-])c4)c(Oc4cnc5[nH]ccc5c4)c3)CC2)=C(c2ccc(Cl)cc2)C1 [venetoclax], the “Antitumor efficacy, single agent” value ([2]; 100 mg kg^−1 orally, daily) is reported as “neither the Bcl-2 inhibitor venetoclax nor cytarabine showed appreciable single-agent efficacy”, the “anti-tumor efficacy … individual measurements” value ([2]; Venetoclax, day 1 post treatment start, animals #5001-#5010) is reported as 36.27 and 38.57 and 29.6 and 32.89 and 34.28 and 28.35 and 32.76 and 34.15 and 38.81 and 36.79 and the “anti-tumor efficacy … individual measurements” value ([2]; Venetoclax, day 3 post treatment start, animals #5001-#5010) is reported as 46.08 and 62.31 and 36.23 and 49.99 and 71.57 and 33.25 and 37.51 and 51.73 and 48.97 and 53.06. For the same molecule, the “anti-tumor efficacy … individual measurements” value ([2]; Venetoclax, day 6 post treatment start, animals #5001-#5010) was 58.2 and 76.5 and 34.06 and 66.44 and 87.06 and 33.28 and 39.03 and 72.1 and 63 and 57.59, the “anti-tumor efficacy … individual measurements” value ([2]; Venetoclax, day 8 post treatment start, animals #5001-#5010) was 70.38 and 85.8 and 36.3 and 78.87 and 103.9 and 36.38 and 41.14 and 85.31 and 91.47 and 80.8 and the “anti-tumor efficacy … individual measurements” value ([2]; Venetoclax, day 10 post treatment start, animals #5001-#5010) was 100.62 and 113 and 44.66 and 100.81 and 143.73 and 36.12 and 44.28 and 122.17 and 124.4 and 110.66. For the same molecule, the “anti-tumor efficacy … individual measurements” value ([2]; Venetoclax, day 13 post treatment start, animals #5001-#5010) was 129.99 and 188.46 and 53.9 and 147.24 and 211.83 and 41.12 and 60.34 and 168.23 and 177.94 and 148.93, the “Overall survival” value ([1]; day 0 post treatment start) was 100 and the “Overall survival” value ([1]; day 1 post treatment start) was 100. The “anti-tumor efficacy in MV-4-11 (AML)-tumor bearing mice in combination with SoC (tumor measurement per animal)” value ([1]; day 1 post treatment start) was 33.13 and 28.19 and 34.15 and 35.82 and 29.42 and 37.09 and 44.34 and 37.28 and 33.74 and 41.97, the “Overall survival” value ([1]; day 4 post treatment start) was 100 and the “anti-tumor efficacy in MV-4-11 (AML)-tumor bearing mice in combination with SoC (tumor measurement per animal)” value ([1]; day 4 post treatment start) was 32.39 and 37.39 and 43.94 and 50.14 and 32.53 and 44.14 and 52.92 and 48.8 and 41.66 and 49.99. For the same molecule, the “Overall survival” value ([1]; day 8 post treatment start) was 100, the “anti-tumor efficacy in MV-4-11 (AML)-tumor bearing mice in combination with SoC (tumor measurement per animal)” value ([1]; day 8 post treatment start) was 41.04 and 57.44 and 59.24 and 62.99 and 49.55 and 52.42 and 59.83 and 53.52 and 48.45 and 66.98 and the “Overall survival” value ([1]; day 11 post treatment start) was 100. For the same molecule, the “anti-tumor efficacy in MV-4-11 (AML)-tumor bearing mice in combination with SoC (tumor measurement per animal)” value ([1]; day 11 post treatment start) was 47.19 and 72.26 and 75.92 and 72.38 and 72.25 and 70.02 and 85.2 and 60.52 and 70.23 and 97.04, the “Overall survival” value ([1]; day 15 post treatment start) was 100 and the “anti-tumor efficacy in MV-4-11 (AML)-tumor bearing mice in combination with SoC (tumor measurement per animal)” value ([1]; day 15 post treatment start) was 63.44 and 101.62 and 98.93 and 111.48 and 113.46 and 108.85 and 111.46 and 76.94 and 80.71 and 124.01. For the same molecule, the “Overall survival” value ([1]; day 16 post treatment start) was 100, the “anti-tumor efficacy in MV-4-11 (AML)-tumor bearing mice in combination with SoC (tumor measurement per animal)” value ([1]; day 16 post treatment start) was 66 and 108.03 and 100.41 and 123.76 and 112.88 and 118.57 and 116.35 and 89.12 and 87.16 and 125.05 and the “Overall survival” value ([1]; day 17 post treatment start) was 0. For the same molecule, the “anti-tumor efficacy in MV-4-11 (AML)-tumor bearing mice in combination with SoC (tumor measurement per animal)” value ([1]; day 17 post treatment start) was 74.19 and 130.91 and 105.55 and 136.78 and 132.34 and 126.42 and 134.13 and 95.37 and 110.48 and 139.48, the “Overall survival” value ([1]; day 19 post treatment start) was 0 and the “Overall survival” value ([1]; day 22 post treatment start) was 0. For the same molecule, the “Overall survival” value ([1]; day 23 post treatment start) was 0, the “Overall survival” value ([1]; day 24 post treatment start) was 0 and the “Overall survival” value ([1]; day 25 post treatment start) was 0. The “Overall survival” value ([1]; day 28 post treatment start) was 0, the “Overall survival” value ([1]; day 30 post treatment start) was 0 and the “Overall survival” value ([1]; day 32 post treatment start) was 0. The “Overall survival” value ([1]; day 34 post treatment start) was 0, the “Overall survival” value ([1]; day 37 post treatment start) was 0 and the “Overall survival” value ([1]; day 39 post treatment start) was 0. For the same molecule, the “Overall survival” value ([1]; day 41 post treatment start) was 0, the “Overall survival” value ([1]; day 44 post treatment start) was 0 and the “Overall survival” value ([1]; day 46 post treatment start) was 0. For the same molecule, the “Overall survival” value ([1]; day 48 post treatment start) was 0, the “Overall survival” value ([1]; day 51 post treatment start) was 0 and the “Overall survival” value ([1]; day 53 post treatment start) was 0.
